Assay results from patent US9403805B2, “Antiviral compounds” (Hoffmann-La Roche Inc., priority 2012, dated 2016).

System: HCV GT1b replicon
Experiment: HCV GT1b replicon luciferase reporter assay (2209-23 cells)
Type: cell-based
Details: Hepatitis C virus, genotype 1a / genotype 1b; 2209-23 cells (Huh-7 with GT-1b Con1 subgenomic replicon), Renilla luciferase read 72 hours after compound addition; read-out: GT-1a - EC50 (nM) HCV, GT1b, IC50 (µM)
Description: Determination of compounds HCV GT1b inhibitory replicon activity using the replicon luciferase reporter assay
The 2209-23 cell line was developed at Roche by stable transfection of the hepatoma cell line Huh-7 with a GT-1b Con1 subgenomic bicistronic replicon as previously described. Subgenomic replicon cell line was established in cured Huh7 cells, obtained from R. Bartenschlager (J Virol. 2003 March; 77 (5):3007-19) The GT-1a H77 subgenomic replicon vector pRLuc H77 1b 75 S/I, was created by replacing the nonstructural region of the GT-1b Con1 subgenomic replicon by the one of the H77 strain, except for the first 75 amino acids of the NS3 protein that are from GT-1b Conl strain. (J. Virol. 2001 77:5352-59) The GT-1a pRLuc H77 1b 75 S/I subgenomic replicon cell line was established in cured Huh7 cells, obtained from R. Bartenschlager. (J Virol. 2003 March; 77 (5):3007-19)
All the subgenomic replicon cell lines were cultured in Dulbecco's Modified Eagle Medium (DMEM-Glutamax™-I; Invitrogen Cat #10569-010). The medium was supplemented with 10% Fetal Bovine Serum (Invitrogen Cat #10082-147), 1% penicillin/streptomycin (Mediatech Cat #30-002-CI) and 500 μg/ml of G418 (Mediatech Cat #30-234-CI). Cells were maintained at 37° C. in a humidified 5% CO2 atmosphere.
2209-23 cells were plated at a cell density of 5000 cells per well in 96 well plates (Becton Dickinson, Cat #35 3296). Cells were plated in 90 μl of Dulbecco's Modified Eagle Medium (DMEM-Glutamax™-I), (Invitrogen Cat #10569-010) medium was supplemented with 5% Fetal Bovine Serum (Invitrogen Cat #10082-147), 1% penicillin/streptomycin (Mediatech Cat #30-002-CI). The pRluc H77 1b 75 SA cells were plated in 96-well plate at 3000 cells/well in DMEM-Glutamax™-I containing 5% FBS and 1% penicillin/streptomycin in 90 μl final volume. Cells were allowed to equilibrate for 24 hours at 37° C. and 5% CO2 at which time compounds were added. Compounds (or medium as a control) were added 24 hours post-plating in 3 fold dilutions at a final DMSO concentration of 1% in 10 μl volume. Renilla luciferase reporter signal was read 72 hours after addition of compounds using the Renilla Luciferase Assay System (Promega, cat #E2820). EC50 values were defined as the compound concentration at which a 50% reduction in the levels of renilla luciferase reporter was observed as compared to control samples in the absence of compound and was determined by non-linear fitting of compound dose-response data. The EC50 was approximated if maximum percentage inhibition was less than 90% and more than 70%.

Structure (SMILES)	IC50
COC(=O)[C@@H]1C[C@@H](NC(=O)c2ccc3ccccc3c2O)CN1CC1CCCCC1 [Compound I-28, (2S,4R)-1-Cyclohexylmethyl-4-[(1-hydroxy-naphthalene-2-carbonyl)-amino]-pyrrolidine-2-carboxylic acid methyl ester]	793 nM
O=C(N[C@H]1C[C@@H](C(=O)N2CCC2)N(CC2CCCCC2)C1)c1ccc2ccccc2c1O [Compound I-29, 1-Hydroxy-naphthalene-2-carboxylic acid [(3S,5S)-5-(azetidine-1-carbonyl)-1-cyclohexylmethyl-pyrrolidin-3-yl]-amide]	826 nM
